Results as given in patent US20130281409A1, “Myelin Sheath Fatty Acids that Resolve Neuroinflammation” (priority 2012, published 2013).
Entries after “also recorded” stand apart in the source; their conditions may differ.

How the values were obtained:
[1] = system: lymph node cells and splenocytes; assay: PLP139-151-induced cytokine secretion by cells from PGPC-treated EAE mice; type: in vivo, mouse
Method: PLP-stimulated cells from PLP139-151-immunized mice administered PGPC prophylactically: SJL/J mice were co-injected with PGPC and PLP139-151 in CFA and sacrificed 48 days later. Lymph node cells and splenocytes were then harvested and re-stimulated in vitro (2.5×10^6 cells/ml) with 10 μg/ml of PLP139-151 or with media alone. PLP-stimulated cells from untreated PLP139-151-immunized mice: SJL/J mice were immunized with PLP139-151 in CFA and sacrificed 10 days later. Splenocytes were then harvested and re-stimulated in vitro (at 5×10^5 cells/ml) with 10 μg/ml of PLP139-151 in the presence of 30 μg/ml of POPS, PGPC, azPC ester, or azPC. Cytokine production by cells from the lymph nodes and spleens of PGPC co-immunized mice was measured after 66 hours of stimulation by using the BD OptEIA™ Mouse IFN-γ ELISA kit (BD Biosciences). Cytokine assays for the anti-CD3/anti-CD28 antibody-stimulated T cells and PLP139-151-stimulated splenocytes were performed on culture supernatants after 48 hours of stimulation using the BD OptEIA™ Mouse IL-6, IFN-γ, and TNF alpha ELISA kits (BD Biosciences) and the Mouse IL-17 DuoSet ELISA Development kit (R&D Systems).

[2] = system: MBPAc1-11-TCR transgenic splenocytes; assay: MBPAc1-11-specific T-cell proliferation (3H-thymidine incorporation); type: cell-based, mouse; conditions: 30 μg/ml lipid, 2 μg/ml MBPAc1-11
Method: Splenocytes were harvested from mice transgenic for the MBPAc1-11-specific T-cell receptor and stimulated with 2 μg/ml of MBPAc1-11 in the presence of 30 μg/ml of lipid. Lymph nodes and spleens were also harvested from naive C57BL/6 mice, and CD3^+ T-cell enrichment columns (R&D systems) were used to isolate CD3^+ T cells. The purified CD3^+ T cells were stimulated with 5 μg/ml of plate-bound anti-CD3 antibodies and anti-CD28 antibodies in the presence of 30 μg/ml of POPS, PGPC, azPC ester, brain sulfatides, or azPC, 0.25 mM palmitic acid, or 100% ethanol (as the vehicle control). For assessment of proliferation, 1 μCi of ^3H-thymidine was added to each well for the final 18-24 hours of culture, and incorporation of radioactivity was measured by using a Betaplate scintillation counter. Cytokine assays were performed on culture supernatants after 24 (IL-12p40) or 48 hours (IFN-γ, IL-6, and TNF) of culture by using the BD OptEIA™ Mouse ELISA kits (BD Biosciences).
5×10^6 cells/ml were stimulated in vitro with 2 μg/ml of MBPAc1-11 in the presence of various concentrations of palmitic acid (Sigma), other lipids, or 100% Ethanol (vehicle alone).
For assessment of proliferation, 1 μCi of ^3H-thymidine was added to each well for the final 18 hours of culture, and incorporation of radioactivity was quantified using a Betaplate scintillation counter.

[3] = system: RAW 264.7 cells; assay: Proliferation of LPS-stimulated RAW 264.7 macrophage cells; type: cell-based, mouse; conditions: 30 μg/ml lipid, 100 ng/ml LPS, 48 hours
Method: LPS-stimulated RAW 264.7 mouse macrophage cells: 1×10^5 cells/ml of RAW 264.7 cells were stimulated with 100 ng/ml of lipopolysaccharide (LPS) in the presence of 30 μg/ml of POPS, PGPC, azPC ester, or azPC.

[4] = system: CD3+ T cells (gated on CD4+ T cells); assay: T-cell apoptosis, Annexin V and 7AAD staining; type: cell-based, mouse; conditions: 30 μg/ml lipid, anti-CD3 and anti-CD28, 48 hours
Method: FIG. 5. […] (C) TUNEL staining of brain and spinal-cord tissue from mice immunized with PLP139-151 peptide (to induce EAE) and treated for 12 h with azPC, POPS, or vehicle on day 15 after immunization. […] (D) Quantification of TUNEL-positive infiltrating cells in brain and spinal cord shown in panel (C). Cells were stained according to standard protocols, run on a FACScan flow cytometer (BD Biosciences), and analysed with CellQuest software (BD Immunocytometry Systems). The antibody conjugate used was FITC anti-CD4, clone GK1.5 (BD Pharmingen). 7AAD staining was performed by using the Annexin V-PE Apoptosis Detection Kit I (BD Pharmingen). Cells were stained according to standard protocols, run on a FACScan flow cytometer (BD Biosciences), and analysed with CellQuest software (BD Immunocytometry Systems) or with FlowJo software version 6.3.2 (Tree Star, Inc.).

[5] = system: B cells; assay: Proliferation of anti-IgM F(ab')2/anti-CD40-stimulated purified B cells; type: cell-based, mouse; conditions: 30 μg/ml lipid, anti-IgM F(ab')2 and anti-CD40, 48 hours
Method: Anti-IgM F(ab′)2 fragment/anti-CD40-stimulated purified B cells: We harvested spleens from naive C57BL/6 mice and used a B-cell isolation kit (Miltenyi Biotec) to negatively isolate B cells. We then stimulated 5×10^5 cells/ml of B cells with 5 μg/ml of each of soluble anti-IgM F(ab′)2 fragment (Jackson ImmunoResearch) antibody and anti-CD40 antibody (eBioscience) in the presence of 30 μg/ml of POPS, PGPC, azPC ester, or azPC.

[6] = system: infiltrating cells in brain and spinal cord of mice with EAE; assay: TUNEL assay on brain and spinal cord of EAE mice; type: in vivo, mouse; conditions: 200 μg i.v. on day 15 after immunization
Method: Mice with EAE were treated intravenously with 200 μg of azPC, 200 μg of POPS, or vehicle (0.05% Tween-20 in PBS) on day 15 after immunization with CFA and PLP139-151 peptide. Mice were treated with lipids for 12, 24, or 48 hours and then sacrificed and perfused with 4% paraformaldehyde. Brains and spinal cords were embedded in paraffin and sectioned. TUNEL-positive cells were detected by using the In Situ Cell Death Kit, AP (Roche) according to the manufacturer's instructions.

Compound	IFN-γ secretion upon PLP139-151 stimulation ([1]; cells from PGPC-treated vs vehicle-treated EAE mice)	TNF secretion upon PLP139-151 stimulation ([1]; splenocytes from PGPC-treated vs vehicle-treated EAE mice)	T-cell proliferation in response to MBPAc1-11 [2]	proliferation of LPS-activated RAW 264.7 cells [3]	increase in T-cell apoptosis [4] [fold]	proliferation of activated B cells [5]	number of TUNEL-positive cells with lymphocyte morphology in brain and spinal cord [6]
CCCCCCCCCCCCCCCC(=O)OC[C@H](COP(=O)([O-])OCC[N+](C)(C)C)OC(=O)CCCC(=O)O [PGPC, 1-Palmitoyl-2-Glutaroyl-sn-Glycero-3-Phosphocholine]	secreted less IFN; also recorded: lower levels	lower levels	reduced T-cell proliferation	suppress proliferation			
CCCCCCCC/C=C\CCCCCCCC(=O)O[C@H](COC(=O)CCCCCCCCCCCCCCC)COP(=O)(O)OC[C@H](N)C(=O)O [POPS, 1-Palmitoyl-2-Oleoyl-sn-Glycero-3-[Phospho-L-Serine]]			reduced T-cell proliferation	suppress proliferation	> 5	modestly suppressed proliferation	increased the number of TUNEL-positive cells
CCCCCCCCCCCCCCCC(=O)OC[C@H](COP(=O)([O-])OCC[N+](C)(C)C)OC(=O)CCCCCCCC(=O)O [azPC, 1-Palmitoyl-2-Azelaoyl-sn-Glycero-3-Phosphocholine]			reduced T-cell proliferation	suppressed proliferation; also recorded: suppress proliferation	> 4	modestly suppressed proliferation	increased the number of TUNEL-positive cells
